The target of the first assay is T1, Recombinant human TPH1 (MBP tagged) (Homo sapiens, UniProt P17752).
T1 construct: cloning full length human TPH1 cDNA in to a bacterial pMAL-c5E expression vector; made in house; host or cells: E. coli BL21 (DE3)
T1 sequence (P17752 1-444): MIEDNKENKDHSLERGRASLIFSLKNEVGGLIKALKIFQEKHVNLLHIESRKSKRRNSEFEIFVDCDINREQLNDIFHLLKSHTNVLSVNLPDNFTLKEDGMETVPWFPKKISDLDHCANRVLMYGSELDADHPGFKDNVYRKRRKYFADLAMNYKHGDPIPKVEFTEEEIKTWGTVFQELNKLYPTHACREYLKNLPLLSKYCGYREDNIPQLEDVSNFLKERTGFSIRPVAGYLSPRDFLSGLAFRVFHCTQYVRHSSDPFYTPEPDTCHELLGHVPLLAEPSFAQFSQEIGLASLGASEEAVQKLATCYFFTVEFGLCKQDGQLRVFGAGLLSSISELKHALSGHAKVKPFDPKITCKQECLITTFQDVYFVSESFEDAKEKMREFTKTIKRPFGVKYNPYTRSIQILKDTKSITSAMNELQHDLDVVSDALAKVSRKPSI
Briefly: TPH1 in vitro inhibition assay (kinetic fluorescence). It counts as biochemical. The settings on record: TPH1 Range (TPH1 inhibition IC50). In a few lines: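 Final mix: 15 nM MBP-TPH1, 30 μM Trp, 36 μM 6-methyltetrahydropterin, 25 μM ferrous ammonium sulfate, 50 mM MES pH 7.1, 1% DMSO, room temperature.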
Take `CS(=O)(=O)Nc1cccc(-c2cc(Cl)ccc2[C@@H](Oc2cc(N3CCC4(CC3)CN[C@H](C(=O)O)C4)nc(N)n2)C(F)(F)F)c1` [Example 34n, (S)-8-(2-amino-6-((R)-1-(5-chloro-3′-(methylsulfonamido)-[1,1′-biphenyl]-2-yl)-2,2,2-trifluoroethoxy)pyrimidin-4-yl)-2,8-diazaspiro[4.5]decane-3-carboxylic acid]: the IC50 is 50 to 300 nM. Still for that read-out and setting: to `Nc1nc(O[C@H](c2ccc(Cl)cc2-c2cccc(N3CCCC3=O)c2)C(F)(F)F)cc(N2CCC3(CC2)CN[C@H](C(=O)O)C3)n1` [Example 34o, (S)-8-(2-amino-6-((R)-1-(5-chloro-3′-(2-oxopyrrolidin-1-yl)-[1,1′-biphenyl]-2-yl)-2,2,2-trifluoroethoxy)pyrimidin-4-yl)-2,8-diazaspiro[4.5]decane-3-carboxylic acid] belongs 50 to 300 nM; to `Nc1nc(O[C@H](c2ccc(Cl)cc2-c2cccc(C(F)(F)F)c2)C(F)(F)F)cc(N2CCC3(CC2)CN[C@H](C(=O)O)C3)n1` [Example 34q, (S)-8-(2-amino-6-((R)-1-(5-chloro-3′-(trifluoromethyl)-[1,1′-biphenyl]-2-yl)-2,2,2-trifluoroethoxy)pyrimidin-4-yl)-2,8-diazaspiro[4.5]decane-3-carboxylic acid], < 50 nM; to `N#Cc1cccc(-c2cc(Cl)ccc2[C@@H](Oc2cc(N3CCC4(CC3)CN[C@H](C(=O)O)C4)nc(N)n2)C(F)(F)F)c1` [Example 34x, (S)-8-(2-amino-6-((R)-1-(5-chloro-3′-cyano-[1,1′-biphenyl]-2-yl)-2,2,2-trifluoroethoxy)pyrimidin-4-yl)-2,8-diazaspiro[4.5]decane-3-carboxylic acid], < 50 nM. The same measure, in the same setting: then `COc1cccc(-c2cc(Cl)ccc2[C@@H](Oc2cc(N3CCC4(CC3)CN[C@H](C(=O)O)C4)nc(N)n2)C(F)(F)F)c1` [Example 34y, (S)-8-(2-amino-6-((R)-1-(5-chloro-3′-methoxy-[1,1′-biphenyl]-2-yl)-2,2,2-trifluoroethoxy)pyrimidin-4-yl)-2,8-diazaspiro[4.5]decane-3-carboxylic acid], with < 50 nM.

The assay is the same for the next values; noted with them: read-out: TPH1 Range (TPH1 inhibition IC50).
For the compound `CCS(=O)(=O)c1cccc(-c2cc(Cl)ccc2[C@@H](Oc2cc(N3CCC4(CC3)CN[C@H](C(=O)O)C4)nc(N)n2)C(F)(F)F)c1` [Example 34j, (S)-8-(2-amino-6-((R)-1-(5-chloro-3′-(ethylsulfonyl)-[1,1′-biphenyl]-2-yl)-2,2,2-trifluoroethoxy)pyrimidin-4-yl)-2,8-diazaspiro[4.5]decane-3-carboxylic acid], the IC50 was 50 to 300 nM. On the same count and under the same terms, to `CCCS(=O)(=O)c1cccc(-c2cc(Cl)ccc2[C@@H](Oc2cc(N3CCC4(CC3)CN[C@H](C(=O)O)C4)nc(N)n2)C(F)(F)F)c1` [Example 34k, (S)-8-(2-amino-6-((R)-1-(5-chloro-3′-(propylsulfonyl)-[1,1′-biphenyl]-2-yl)-2,2,2-trifluoroethoxy)pyrimidin-4-yl)-2,8-diazaspiro[4.5]decane-3-carboxylic acid] belongs 50 to 300 nM. Still for that read-out and setting: then `CCCCS(=O)(=O)c1cccc(-c2cc(Cl)ccc2[C@@H](Oc2cc(N3CCC4(CC3)CN[C@H](C(=O)O)C4)nc(N)n2)C(F)(F)F)c1` [Example 34l, (S)-8-(2-amino-6-((R)-1-(3′-(butylsulfonyl)-5-chloro-[1,1′-biphenyl]-2-yl)-2,2,2-trifluoroethoxy)pyrimidin-4-yl)-2,8-diazaspiro[4.5]decane-3-carboxylic acid], with 50 to 300 nM; and `Nc1nc(O[C@H](c2ccc(Cl)cc2-c2cccc(CO)c2)C(F)(F)F)cc(N2CCC3(CC2)CN[C@H](C(=O)O)C3)n1` [Example 34m, (S)-8-(2-amino-6-((R)-1-(5-chloro-3′-(hydroxymethyl)-[1,1′-biphenyl]-2-yl)-2,2,2-trifluoroethoxy)pyrimidin-4-yl)-2,8-diazaspiro[4.5]decane-3-carboxylic acid], with 50 to 300 nM; and `CN1CCN(c2cccc(-c3cc(Cl)ccc3[C@@H](Oc3cc(N4CCC5(CC4)CN[C@H](C(=O)O)C5)nc(N)n3)C(F)(F)F)c2)C1=O` [Example 34p, (S)-8-(2-amino-6-((R)-1-(5-chloro-3′-(3-methyl-2-oxoimidazolidin-1-yl)-[1,1′-biphenyl]-2-yl)-2,2,2-trifluoroethoxy)pyrimidin-4-yl)-2,8-diazaspiro[4.5]decane-3-carboxylic acid], with 50 to 300 nM. Same read-out and setting: then `Cn1ccc(-c2cc(Cl)ccc2[C@@H](Oc2cc(N3CCC4(CC3)CN[C@H](C(=O)O)C4)nc(N)n2)C(F)(F)F)n1` [Example 34t, (S)-8-(2-amino-6-((R)-1-(4-chloro-2-(1-methyl-1H-pyrazol-3-yl)phenyl)-2,2,2-trifluoroethoxy)pyrimidin-4-yl)-2,8-diazaspiro[4.5]decane-3-carboxylic acid], with 50 to 300 nM.

In the case of `NCc1cccc(-c2cc(Cl)ccc2[C@@H](Oc2cc(N3CCC4(CC3)CN[C@H](C(=O)O)C4)nc(N)n2)C(F)(F)F)c1` [Example 34z, (S)-8-(2-amino-6-((R)-1-(3′-(aminomethyl)-5-chloro-[1,1′-biphenyl]-2-yl)-2,2,2-trifluoroethoxy)pyrimidin-4-yl)-2,8-diazaspiro[4.5]decane-3-carboxylic acid], the IC50 is < 50 nM. Still for that read-out and setting: to `CCOC(=O)c1cccc(-c2cc(Cl)ccc2[C@@H](Oc2cc(N3CCC4(CC3)CN[C@H](C(=O)O)C4)nc(N)n2)C(F)(F)F)c1` [Example 35, (S)-8-(2-amino-6-((R)-1-(5-chloro-3′-(ethoxycarbonyl)-[1,1′-biphenyl]-2-yl)-2,2,2-trifluoroethoxy)pyrimidin-4-yl)-2,8-diazaspiro[4.5]decane-3-carboxylic acid] belongs 50 to 300 nM; to `COCCOc1cc(Cl)ccc1[C@@H](Oc1cc(N2CCC3(CC2)CN[C@H](C(=O)O)C3)nc(N)n1)C(F)(F)F` [Example 36, (S)-8-(2-amino-6-((R)-1-(4-chloro-2-(2-methoxyethoxy)phenyl)-2,2,2-trifluoroethoxy)pyrimidin-4-yl)-2,8-diazaspiro[4.5]decane-3-carboxylic acid], 3000 to 10000 nM; to `Nc1nc(O[C@H](c2ccc(Cl)cc2-n2cnc3ccccc32)C(F)(F)F)cc(N2CCC3(CC2)CN[C@H](C(=O)O)C3)n1` [Example 36b, (S)-8-(6-((R)-1-(2-(1H-benzo[d]imidazol-1-yl)-4-chlorophenyl)-2,2,2-trifluoroethoxy)-2-aminopyrimidin-4-yl)-2,8-diazaspiro[4.5]decane-3-carboxylic acid], 50 to 300 nM. The same measure, in the same setting: then `Nc1nc(O[C@H](c2ccc(Cl)cc2-n2ncc3ccccc32)C(F)(F)F)cc(N2CCC3(CC2)CN[C@H](C(=O)O)C3)n1` [Example 36c, (S)-8-(2-amino-6-((R)-1-(4-chloro-2-(1H-indazol-1-yl)phenyl)-2,2,2-trifluoroethoxy)pyrimidin-4-yl)-2,8-diazaspiro[4.5]decane-3-carboxylic acid], with < 50 nM; and `Nc1nc(O[C@H](c2ccc(Br)cc2N2CCNCC2)C(F)(F)F)cc(N2CCC3(CC2)CN[C@H](C(=O)O)C3)n1` [Example 36d, (S)-8-(2-amino-6-((R)-1-(4-bromo-2-(piperazin-1-yl)phenyl)-2,2,2-trifluoroethoxy)pyrimidin-4-yl)-2,8-diazaspiro[4.5]decane-3-carboxylic acid], with 3000 to 10000 nM. Regarding `CC(C)Oc1ccc(-c2ccc([C@@H](Oc3cc(N4CCC5(CC4)CN[C@H](C(=O)O)C5)nc(N)n3)C(F)(F)F)c(N3CCNCC3)c2)cc1` [Example 36e, (S)-8-(2-amino-6-((R)-2,2,2-trifluoro-1-(4′-isopropoxy-3-(piperazin-1-yl)-[1,1′-biphenyl]-4-yl)ethoxy)pyrimidin-4-yl)-2,8-diazaspiro[4.5]decane-3-carboxylic acid], the IC50 was in the range of 300 to 3000 nM.

For `CC(C)Oc1ccc(-c2ccc([C@@H](Oc3cc(N4CCC5(CC4)CN[C@H](C(=O)O)C5)nc(N)n3)C(F)(F)F)c(N3CCOCC3)c2)cc1` [Example 36f, (S)-8-(2-amino-6-((R)-2,2,2-trifluoro-1-(4′-isopropoxy-3-morpholino-[1,1′-biphenyl]-4-yl)ethoxy)pyrimidin-4-yl)-2,8-diazaspiro[4.5]decane-3-carboxylic acid], the IC50 is 50 to 300 nM.

In the case of `Nc1nc(O[C@H](c2ccccc2-c2ccccc2)C(F)(F)F)cc(N2CCC3(CC2)CN[C@H](C(=O)O)C3)n1` [Example 36g, (S)-8-(6-((R)-1-([1,1′-biphenyl]-2-yl)-2,2,2-trifluoroethoxy)-2-aminopyrimidin-4-yl)-2,8-diazaspiro[4.5]decane-3-carboxylic acid], the IC50 is < 50 nM. Consider `CC(Oc1cc(N2CCC3(CC2)CN[C@H](C(=O)O)C3)nc(N)n1)C1C2CC3CC(C2)CC1C3` (stereo partly drawn) [Example 37, (3S)-8-(6-(1-((1r,3r,5S,7S)-adamantan-2-yl)ethoxy)-2-aminopyrimidin-4-yl)-2,8-diazaspiro[4.5]decane-3-carboxylic acid], for which the IC50 is 3000 to 10000 nM.

For `Nc1nc(OCC2C3CC4CC(C3)CC2C4)cc(N2CCC3(CC2)CN[C@H](C(=O)O)C3)n1` (stereo partly drawn) [Example 38, (S)-8-(6-((1r,3r,5S,7S)-adamantan-2-ylmethoxy)-2-aminopyrimidin-4-yl)-2,8-diazaspiro[4.5]decane-3-carboxylic acid], the IC50 was in the range of 300 to 3000 nM.

These data come from patent US11759462B2, “Spirocyclic compounds as tryptophan hydroxylase inhibitors” (priority 2013, dated 2023).
